The supplement of paper PMC10307832

How the values were obtained:
Assay in all cases: relative viability (nuclei count vs DMSO), 5 days (fraction); higher = more cells survive
NCI-H1563 = tested on: NCI-H1563
Procedure, shortened: (§1)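 Lung cancer cell lines in 1536-well plates were dosed by pin tool the day after seeding, either with one drug alone or with a fixed anchor-drug dose plus five library-drug doses (not always all listed) in √10 steps. After 5 days, cells were fixed and their nuclei stained in one step (final 0.05% Triton X-100, 1% formaldehyde, 1 ug/ml Hoechst), then counted on 4× images. Relative viability is the nuclei count in treated wells divided by that in vehicle wells. Values are medians of duplicate plates.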

NCI-H1648 = tested on: NCI-H1648
Procedure, shortened: as §1

NCI-H2342 = tested on: NCI-H2342
Procedure, shortened: as §1

NCI-H522 = tested on: NCI-H522
Procedure, shortened: as §1

SW 900 = tested on: SW 900
Procedure, shortened: as §1

IA-LM = tested on: IA-LM
Procedure, shortened: as §1

A549 = tested on: A549
Procedure, shortened: as §1

NCI-H1703 = tested on: NCI-H1703
Procedure, shortened: as §1

O=c1[nH]c2ccccc2n1C1CCN(CCCC(c2ccc(F)cc2)c2ccc(F)cc2)CC1 [Pimozide] + Nc1nc2[nH]cc(CCc3ccc(C(=O)N[C@@H](CCC(=O)O)C(=O)O)cc3)c2c(=O)[nH]1 [Pemetrexed] (partner 0.2 µM)
relative viability (NCI-H1563; first compound 0.08 µM): 0.606 | relative viability (NCI-H1563; first compound 0.253 µM): 0.849 | relative viability (NCI-H1563; first compound 0.8 µM): 0.745 | relative viability (NCI-H1563; first compound 2.53 µM): 0.781 | relative viability (NCI-H1563; first compound 8 µM): 0.734 | relative viability (NCI-H1648; first compound 0.08 µM): 0.818 | relative viability (NCI-H1648; first compound 0.8 µM): 0.573 | relative viability (NCI-H1648; first compound 2.53 µM): 0.673 | relative viability (NCI-H1648; first compound 8 µM): 0.612 | relative viability (NCI-H2342; first compound 0.08 µM): 0.796 | relative viability (NCI-H2342; first compound 0.253 µM): 0.757 | relative viability (NCI-H2342; first compound 0.8 µM): 0.634 | relative viability (NCI-H2342; first compound 2.53 µM): 0.749 | relative viability (NCI-H2342; first compound 8 µM): 0.752 | relative viability (NCI-H522; first compound 0.08 µM): 1.04 | relative viability (NCI-H522; first compound 0.253 µM): 0.848 | relative viability (NCI-H522; first compound 0.8 µM): 0.832 | relative viability (NCI-H522; first compound 2.53 µM): 0.818 | relative viability (NCI-H522; first compound 8 µM): 0.904 | relative viability (SW 900; first compound 0.08 µM): 0.483 | relative viability (SW 900; first compound 0.253 µM): 0.465 | relative viability (SW 900; first compound 2.53 µM): 0.447 | relative viability (SW 900; first compound 8 µM): 0.418

O=C(O)CCCCC(CCSCc1ccccc1)SCc1ccccc1 (stereo not drawn) [CPI-613] + O=C(CCCCCCC(=O)Nc1ccccc1)NO [Vorinostat] (partner 1 µM)
relative viability (NCI-H1648; first compound 5 µM): 0.527 | relative viability (NCI-H1648; first compound 15.81 µM): 0.336 | relative viability (NCI-H1648; first compound 50 µM): 0.422 | relative viability (NCI-H1648; first compound 158.11 µM): 0.142 | relative viability (NCI-H1648; first compound 500 µM): 0.0754 | relative viability (NCI-H2342; first compound 5 µM): 0.648 | relative viability (NCI-H2342; first compound 15.81 µM): 0.629 | relative viability (NCI-H2342; first compound 50 µM): 0.721 | relative viability (NCI-H2342; first compound 158.11 µM): 0.763 | relative viability (NCI-H2342; first compound 500 µM): 0.939 | relative viability (NCI-H522; first compound 5 µM): 0.841 | relative viability (NCI-H522; first compound 15.81 µM): 0.812 | relative viability (NCI-H522; first compound 50 µM): 0.833 | relative viability (NCI-H522; first compound 158.11 µM): 0.741 | relative viability (NCI-H522; first compound 500 µM): 0.244 | relative viability (IA-LM; first compound 5 µM): 0.876 | relative viability (IA-LM; first compound 15.81 µM): 0.869 | relative viability (IA-LM; first compound 50 µM): 0.685 | relative viability (IA-LM; first compound 500 µM): 0.937 | relative viability (SW 900; first compound 5 µM): 0.512 | relative viability (SW 900; first compound 50 µM): 0.555 | relative viability (SW 900; first compound 158.11 µM): 0.316 | relative viability (SW 900; first compound 500 µM): 0.0227

O=c1[nH]c2ccccc2n1C1CCN(CCCC(c2ccc(F)cc2)c2ccc(F)cc2)CC1 [Pimozide] + O=C(CCCCCCC(=O)Nc1ccccc1)NO [Vorinostat] (partner 1 µM)
relative viability (NCI-H1648; first compound 0.08 µM): 0.315 | relative viability (NCI-H1648; first compound 0.8 µM): 0.527 | relative viability (NCI-H1648; first compound 2.53 µM): 0.228 | relative viability (NCI-H1648; first compound 8 µM): 0.347 | relative viability (NCI-H2342; first compound 0.08 µM): 0.778 | relative viability (NCI-H2342; first compound 0.253 µM): 0.77 | relative viability (NCI-H2342; first compound 0.8 µM): 0.658 | relative viability (NCI-H2342; first compound 2.53 µM): 0.75 | relative viability (NCI-H2342; first compound 8 µM): 0.696 | relative viability (NCI-H522; first compound 0.08 µM): 0.848 | relative viability (NCI-H522; first compound 0.253 µM): 0.908 | relative viability (NCI-H522; first compound 0.8 µM): 0.673 | relative viability (NCI-H522; first compound 2.53 µM): 0.817 | relative viability (NCI-H522; first compound 8 µM): 0.81 | relative viability (IA-LM; first compound 0.08 µM): 0.931 | relative viability (IA-LM; first compound 0.253 µM): 0.923 | relative viability (IA-LM; first compound 2.53 µM): 0.913 | relative viability (IA-LM; first compound 8 µM): 0.99 | relative viability (SW 900; first compound 0.08 µM): 0.655 | relative viability (SW 900; first compound 0.253 µM): 0.45 | relative viability (SW 900; first compound 2.53 µM): 0.509 | relative viability (SW 900; first compound 8 µM): 0.3

Cc1cnc(-c2cnc(NCCNc3ccc(C#N)cn3)nc2-c2ccc(Cl)cc2Cl)[nH]1 + Nc1ncn([C@H]2C[C@H](O)[C@@H](CO)O2)c(=O)n1 [Decitabine] (partner 2 µM)
relative viability (NCI-H1648; first compound 0.08 µM): 0.444 | relative viability (NCI-H1648; first compound 0.253 µM): 0.453 | relative viability (NCI-H1648; first compound 0.8 µM): 0.554 | relative viability (NCI-H1648; first compound 2.53 µM): 0.541 | relative viability (NCI-H2342; first compound 0.08 µM): 0.727 | relative viability (NCI-H2342; first compound 0.253 µM): 0.548 | relative viability (NCI-H2342; first compound 0.8 µM): 0.671 | relative viability (NCI-H2342; first compound 2.53 µM): 0.66 | relative viability (NCI-H522; first compound 0.08 µM): 0.779 | relative viability (NCI-H522; first compound 0.253 µM): 0.68 | relative viability (NCI-H522; first compound 0.8 µM): 0.557 | relative viability (NCI-H522; first compound 2.53 µM): 0.63 | relative viability (A549; first compound 0.08 µM): 0.257 | relative viability (A549; first compound 0.253 µM): 0.254 | relative viability (A549; first compound 0.8 µM): 0.262 | relative viability (A549; first compound 2.53 µM): 0.316 | relative viability (SW 900; first compound 0.08 µM): 0.523 | relative viability (SW 900; first compound 0.253 µM): 0.436 | relative viability (SW 900; first compound 0.8 µM): 0.442 | relative viability (SW 900; first compound 2.53 µM): 0.393

O=c1[nH]c2ccccc2n1C1CCN(CCCC(c2ccc(F)cc2)c2ccc(F)cc2)CC1 [Pimozide] + NC(=O)Nc1cc(-c2cccc(F)c2)sc1C(=O)N[C@H]1CCCNC1 [AZD7762] (partner 0.2 µM)
relative viability (NCI-H1648; first compound 0.08 µM): 0.568 | relative viability (NCI-H1648; first compound 0.8 µM): 0.52 | relative viability (NCI-H1648; first compound 2.53 µM): 0.584 | relative viability (NCI-H1648; first compound 8 µM): 0.698 | relative viability (NCI-H2342; first compound 0.08 µM): 0.524 | relative viability (NCI-H2342; first compound 0.253 µM): 0.526 | relative viability (NCI-H2342; first compound 0.8 µM): 0.465 | relative viability (NCI-H2342; first compound 2.53 µM): 0.48 | relative viability (NCI-H2342; first compound 8 µM): 0.492 | relative viability (NCI-H1703; first compound 0.08 µM): 0.129 | relative viability (NCI-H1703; first compound 0.253 µM): 0.109 | relative viability (NCI-H1703; first compound 0.8 µM): 0.0889 | relative viability (NCI-H1703; first compound 2.53 µM): 0.1 | relative viability (NCI-H1703; first compound 8 µM): 0.122 | relative viability (NCI-H522; first compound 0.08 µM): 0.963 | relative viability (NCI-H522; first compound 0.253 µM): 0.835 | relative viability (NCI-H522; first compound 0.8 µM): 0.857 | relative viability (NCI-H522; first compound 2.53 µM): 0.77 | relative viability (NCI-H522; first compound 8 µM): 0.872 | relative viability (SW 900; first compound 0.08 µM): 0.524 | relative viability (SW 900; first compound 0.253 µM): 0.599 | relative viability (SW 900; first compound 2.53 µM): 0.591 | relative viability (SW 900; first compound 8 µM): 0.478

Cc1cnc(-c2cnc(NCCNc3ccc(C#N)cn3)nc2-c2ccc(Cl)cc2Cl)[nH]1 + NC(=O)Nc1cc(-c2cccc(F)c2)sc1C(=O)N[C@H]1CCCNC1 [AZD7762] (partner 0.2 µM)
relative viability (NCI-H1648; first compound 0.08 µM): 0.542 | relative viability (NCI-H1648; first compound 0.253 µM): 0.579 | relative viability (NCI-H1648; first compound 0.8 µM): 0.643 | relative viability (NCI-H1648; first compound 2.53 µM): 0.624 | relative viability (NCI-H2342; first compound 0.08 µM): 0.516 | relative viability (NCI-H2342; first compound 0.253 µM): 0.473 | relative viability (NCI-H2342; first compound 0.8 µM): 0.484 | relative viability (NCI-H2342; first compound 2.53 µM): 0.46 | relative viability (NCI-H1703; first compound 0.08 µM): 0.14 | relative viability (NCI-H1703; first compound 0.253 µM): 0.128 | relative viability (NCI-H1703; first compound 2.53 µM): 0.13 | relative viability (NCI-H522; first compound 0.08 µM): 0.868 | relative viability (NCI-H522; first compound 0.253 µM): 0.798 | relative viability (NCI-H522; first compound 0.8 µM): 0.768 | relative viability (NCI-H522; first compound 2.53 µM): 0.789 | relative viability (SW 900; first compound 0.08 µM): 0.736 | relative viability (SW 900; first compound 0.253 µM): 0.548 | relative viability (SW 900; first compound 0.8 µM): 0.507 | relative viability (SW 900; first compound 2.53 µM): 0.452

O=c1[nH]c2ccccc2n1C1CCN(CCCC(c2ccc(F)cc2)c2ccc(F)cc2)CC1 [Pimozide] + Nc1ncn([C@H]2C[C@H](O)[C@@H](CO)O2)c(=O)n1 [Decitabine] (partner 2 µM)
relative viability (NCI-H1648; first compound 0.08 µM): 0.392 | relative viability (NCI-H1648; first compound 0.8 µM): 0.466 | relative viability (NCI-H1648; first compound 2.53 µM): 0.55 | relative viability (NCI-H1648; first compound 8 µM): 0.517 | relative viability (NCI-H2342; first compound 0.08 µM): 0.698 | relative viability (NCI-H2342; first compound 0.253 µM): 0.74 | relative viability (NCI-H2342; first compound 0.8 µM): 0.715 | relative viability (NCI-H2342; first compound 2.53 µM): 0.746 | relative viability (NCI-H2342; first compound 8 µM): 0.725 | relative viability (NCI-H522; first compound 0.08 µM): 0.679 | relative viability (NCI-H522; first compound 0.253 µM): 0.693 | relative viability (NCI-H522; first compound 0.8 µM): 0.615 | relative viability (NCI-H522; first compound 2.53 µM): 0.698 | relative viability (NCI-H522; first compound 8 µM): 0.771 | relative viability (A549; first compound 0.08 µM): 0.307 | relative viability (A549; first compound 0.253 µM): 0.208 | relative viability (A549; first compound 0.8 µM): 0.211 | relative viability (A549; first compound 2.53 µM): 0.312 | relative viability (A549; first compound 8 µM): 0.199 | relative viability (SW 900; first compound 0.08 µM): 0.451 | relative viability (SW 900; first compound 0.253 µM): 0.415 | relative viability (SW 900; first compound 2.53 µM): 0.548 | relative viability (SW 900; first compound 8 µM): 0.472
